For this experiment, the system named is Mouse B16 melanoma cells. In words: Melanin production inhibition test (quantification of melanin). In kind it is cell-based. The following applies: for Inhibitory effect on melanin production: class of minimum non-cytotoxic concentration giving melanin amount 80% or less of solvent group, B16 cells, three days after addition; for Minimum concentration (%): minimum concentration at which an inhibitory effect on melanin production was significantly exhibited in melanoma B16 cells. Here is the method: A test for melanin production inhibition by the compounds of the formula (1) was conducted. The test method is as follows.
Melanin Production Inhibition Test
(1) Inoculation of Cells and Addition of Test Substances
Mouse B16 melanoma cells were inoculated in a six well plate at 100,000 cells/well. The next day, test substance solutions (solvent: DMSO) were added.
(3) Quantification of Melanin
The cells after the cell proliferation test were washed with PBS three times, and then lysed by addition of 200 μL of 1M NaOH to measure an absorbance at 475 nm. Using the value thus measured as a relative value of the melanin amount, a ratio of the melanin amount (%) of the test substance-added group to the test substance-absent group (group in which only the solvent was added) was calculated. The lower the ratio of the melanin amount, the higher the melanin production-inhibitory effect. […] The inhibitory effect on melanin production was evaluated according to the following criteria.
⊚: the minimum concentration for inhibition of melanin production was 1 ppm or less.
◯: the minimum concentration for inhibition of melanin production was more than 1 ppm and 10 ppm or less.

For the compound `Cc1cc(C)nc(-n2nc(C)cc2C)n1` [Compound 1, 2-(3,5-dimethylpyrazol-1-yl)-4,6-dimethylpyrimidine], the “Inhibitory effect on melanin production” value is “⊚ (the minimum concentration for inhibition of melanin production was 1 ppm or less)” and the “Minimum concentration (%)” value is on record as 1 × 10^−6%. `Cc1cc(C)nc(-n2nc(C)cc2C)n1.Cl` [Compound 2, 2-(3,5-dimethylpyrazol-1-yl)-4,6-dimethylpyrimidine hydrochloride]: the “Inhibitory effect on melanin production” value is given as “⊚ (the minimum concentration for inhibition of melanin production was 1 ppm or less)”. In the case of `CCc1cc(CC)n(-c2nc(C)cc(C)n2)n1` [Compound 3], the “Inhibitory effect on melanin production” value is listed as “⊚ (the minimum concentration for inhibition of melanin production was 1 ppm or less)” and the “Minimum concentration (%)” value is given as 3 × 10^−6%. Take `Cc1cc(C)nc(-n2nc(C)c(C)c2C)n1` [Compound 4]: the “Inhibitory effect on melanin production” value is “⊚ (the minimum concentration for inhibition of melanin production was 1 ppm or less)” and the “Minimum concentration (%)” value is on record as 3 × 10^−6%.

With `Cc1cc(C)n(-c2nc(C)c(C)c(C)n2)n1` [Compound 5, 2-(3,5-dimethylpyrazol-1-yl)-4,5,6-trimethylpyrimidine], the “Inhibitory effect on melanin production” value was “⊚ (the minimum concentration for inhibition of melanin production was 1 ppm or less)”.

The values above are taken from US8324234B2, “Method for inhibiting melanin production and whitening skin with pyrimidylpyrazole compounds or pharmaceutically acceptable salts thereof” (Shiseido Company Ltd., priority 2008, dated 2012).
